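Grown in 96-well plates, cells were treated for 48 hours with each compound at five concentrations. Insufficient inhibition: endpoint recorded as highest concentration tested. Abbreviation: GI50, concentration required for 50% inhibition of growth. TGI denotes the concentration required for complete inhibition of growth.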

Test in all cases: growth of human tumour cells (NCI), 48 h
Experiment [1] deals with ACHN renal.
Experiment [2] has as its system BT-549 breast.
In experiment [3] the test system is CAKI-1 renal.
Experiment [4] has as its system DU-145 prostate.
Experiment [5] concerns HL-60(TB) leukemia.
Experiment [6] deals with K-562 leukemia.
The test system of experiment [7] is NCI-H522 lung.
Experiment [8] deals with NCI/ADR-RES ovarian.
Experiment [9] deals with SF-268 CNS.
Experiment [10] has as its system SW-620 colon.
For experiment [11], the system named is HCC-2998 colon.

In the case of `CCOCc1nc2c(OC)cc(-c3nc4ccc(N5CCN(C)CC5)cc4[nH]3)c(OC)c2[nH]1`, the TGI in experiment [1] is > 100 µM; in experiment [2] it was > 100 µM; in [3], 81.9 µM; in [4] it was > 100 µM; in [5], 21.1 µM; in experiment [6], > 100 µM. Further, the TGI is 58.2 µM in experiment [7], > 100 µM in experiment [8], > 100 µM in experiment [9] and > 100 µM in [10].
For the compound `O=C1CSC(c2cccc(Oc3ccccc3)c2)N1c1ccc(Cl)cc1` (centres undefined), the TGI in experiment [1] is 75 µM; in [2], > 100 µM; in experiment [3], > 100 µM; in experiment [4], > 100 µM; in experiment [5], > 100 µM; in [6], 69.9 µM. Also, the TGI in experiment [7] was 49.4 µM; in experiment [8], > 100 µM; in experiment [9], > 100 µM; in [10], > 100 µM.
With `Nc1nc(N)c2ncn(-c3ccc(Cl)cc3)c2n1`, the TGI in experiment [1], in [3], in [4], in experiment [11], in [5] and in [7] was > 100 µM each time. Further, the TGI in experiment [8] is > 100 µM.
As for `Cc1ccc(/C=C2\CCCc3ccccc3C2=O)cc1`, the TGI in experiment [1] was > 100 µM; in experiment [2], 54.1 µM; in experiment [3], > 100 µM; in experiment [4] it was > 100 µM; in experiment [5], 30.7 µM; in experiment [6] it was 53.7 µM. Moreover, the TGI in [7] stood at 27.8 µM; in [8] it was 99.3 µM; in experiment [9], 30.7 µM; in experiment [10] it was 65.9 µM.
`COc1cccc(-c2ccc3c4c2O[C@H]2C(=O)CC[C@@]5(O)[C@@H](C3)N(CC3CC3)CC[C@]425)c1`: the TGI in experiment [1] is 35.9 µM; in [2], 35.1 µM; in experiment [3] it was 31 µM; in [4] it was 63.4 µM; in experiment [5] it was 40.5 µM; in [6] it was 28.6 µM. The TGI amounted to 32.9 µM in experiment [7], 38.8 µM in experiment [8], 40.3 µM in [9] and 29.2 µM in [10].
On to `O=c1[nH]nc(-c2ccccc2)c2[nH]c3c4ccccc4ccc3c12`, for which the TGI in experiment [1] was > 100 µM; in experiment [11], 4.81 µM; in [5], > 100 µM; in experiment [6], > 100 µM; in experiment [7] it was > 100 µM; in experiment [9], > 100 µM. For the same compound, the TGI in experiment [10] was > 100 µM.
In the case of `CC(C)[Si](OC1=C(C(=O)N(C)c2cccc(Cl)c2)CCCC1)(C(C)C)C(C)C`, the TGI came to 31.2 µM in [1]; 25.9 µM in [3]; 25.5 µM in experiment [4]; 34 µM in experiment [11]; 26.3 µM in [5]; 71.3 µM in experiment [6]. In addition, the TGI in experiment [8] came to 26.3 µM; in [9], 28.6 µM; in [10], 29.2 µM.
With `CC1OC(OC2C(O[C@H]3CC[C@@]4(C)C(=CC[C@H]5[C@@H]6C[C@@H]7O[C@]8(CC[C@@H](CO)CO8)[C@@H](C)[C@@H]7[C@@]6(C)CC[C@@H]54)C3)OC(CO)C(O)C2OC2OC(CO)C(O)C(O)C2O)C(O)C(O)C1O` (some centres undefined), the TGI in experiment [1] worked out at 3.25 µM; in [3], 3.55 µM; in [4], 3.34 µM; in [11], 2.97 µM; in [5] it was 2.8 µM; in experiment [6], 3.17 µM. The TGI in [7] turned out to be 3.19 µM; in [8], 3.76 µM; in [9], 3.54 µM; in experiment [10], 3.54 µM.
Take `O=C1CCC(c2ccc(Cl)cc2)=NN1c1nsc2ccccc12`: the TGI was > 100 µM in experiment [1]; 44.8 µM in [11]; 46.3 µM in experiment [5]; 68 µM in [6]; > 100 µM in [9]; > 100 µM in [10].
As to `NC(N)=N/N=C/c1c[nH]c2ccccc12`, the TGI in experiment [1], in experiment [3], in experiment [11], in experiment [5], in [6] and in experiment [7] was > 100 µM throughout. Further, the TGI in [9] and in experiment [10] was > 100 µM throughout.
For the compound `C[C@]12CCC(=O)O[C@H]1CCCCO2`, the TGI in [3], in [4], in [11], in experiment [5], in [6] and in experiment [7] was > 100 µM in each case. Further, the TGI in experiment [8], in [9] and in experiment [10] was > 100 µM each time.
For `C(=Nc1ccc(-c2nc3ccccc3[nH]2)cc1)c1cccs1`, the TGI in experiment [1] is > 100 µM; in [2], 86.4 µM; in [3] it was > 100 µM; in experiment [4], > 100 µM; in experiment [5], > 100 µM; in experiment [6], > 100 µM. In addition, the TGI in experiment [7], in experiment [8], in experiment [9] and in [10] was > 100 µM in each case.
In the case of `NN/C(=N\S(=O)(=O)c1cc2ccccc2s1)Nc1ccc(Cl)cc1`, the TGI in experiment [1] is 54.4 µM; in experiment [2] it was 35.6 µM; in experiment [3], 39.4 µM; in experiment [4], 32.3 µM; in experiment [5], 48 µM; in experiment [6], > 100 µM. Besides, the TGI is 46.4 µM in experiment [8], 37.9 µM in experiment [9] and 54.9 µM in experiment [10].
For `COC(CNC(=O)C(C)NC(=O)CCc1ccccc1)OC` (centres undefined), the TGI in [1], in experiment [2], in experiment [3], in experiment [4], in experiment [5] and in [6] was > 100 µM throughout. Also, the TGI in experiment [7], in experiment [8], in experiment [9] and in experiment [10] was > 100 µM throughout.
For the compound `Cc1nc(-c2cc3cc([N+](=O)[O-])ccc3oc2=O)cs1`, the TGI in experiment [1], in [2], in experiment [3], in [4], in [11] and in [5] was > 100 µM each time. The TGI in [6], in experiment [9] and in experiment [10] was > 100 µM each time.
As to `CC(C)=CCC/C(C)=C/C=C/C(C)=C/C=C/C(C)=C/C=C/C=C(C)/C=C/C=C(C)/C=C/[C@H]1C(C(C)(C)O)CC[C@]1(C)O` (some centres undefined), the TGI is 45.5 µM in experiment [1]; > 100 µM in experiment [3]; 49.9 µM in experiment [4]; 30 µM in [11]; 48.9 µM in experiment [5]; 63.6 µM in experiment [6]. The TGI was 36.8 µM in experiment [7], > 100 µM in experiment [8], 42.4 µM in experiment [9] and 65.8 µM in experiment [10].
Take `CNc1ccc(C(=O)CC(O)CCC(C)C2OC(=O)CC(O)CC(=O)CC(O)CC(O)CC(O)CC(O)CC3(O)CC(O)C(C(=O)OC)C(CC(O[C@@H]4O[C@H](C)[C@@H](O)[C@H](N)[C@@H]4O)/C=C/C=C/C=C/C=C/C=C/C=C/C=C/C2C)O3)cc1` (some centres undefined): the GI50 in experiment [2] is 3.45 µM; in [3], 1.88 µM; in experiment [4] it was 1.85 µM; in experiment [11], 3.25 µM; in experiment [5], 2.9 µM; in experiment [6] it was 5.05 µM. Besides, the GI50 in experiment [7] is 2.48 µM; in experiment [9], 2.82 µM; in [10] it was 5.33 µM. The TGI in experiment [2] is > 100 µM; in experiment [3], 4.89 µM; in [4] it was 3.55 µM; in [11], 12.3 µM; in experiment [5], 7.04 µM; in experiment [6], 40.2 µM. Besides, the TGI was 6.03 µM in experiment [7], 7.46 µM in experiment [9] and 40.5 µM in experiment [10].
For the compound `COc1ccc(C2OC[C@H]3O[C@@H](OCc4ccccc4)[C@H](O)[C@@H](O)[C@@H]3O2)cc1` (some centres undefined), the TGI in experiment [1], in experiment [2], in [3], in [4], in experiment [11] and in experiment [6] was > 100 µM throughout. Besides, the TGI in experiment [8], in experiment [9] and in experiment [10] was > 100 µM each time.
For `CCOc1cn(C2CC(O)C(CO)O2)c(=O)[nH]c1=O` (centres undefined), the TGI in experiment [1], in experiment [2], in [3], in experiment [4], in experiment [11] and in [5] was > 100 µM each time. Moreover, the TGI in [8], in experiment [9] and in experiment [10] was > 100 µM throughout.
As for `N#CC(NC12CC3CC(CC(C3)C1)C2)c1ccccc1C(F)(F)F` (centres undefined), the TGI in experiment [1], in experiment [3], in [11], in [5], in experiment [6] and in experiment [7] was > 100 µM throughout. In addition, the TGI in [9] and in [10] was > 100 µM in each case.
For `COC1C=CC(O)C(CO)O1` (centres undefined), the TGI in [1], in experiment [11], in experiment [5], in experiment [6], in experiment [7] and in [10] was > 100 µM each time.
Consider `C=CCCN1CCc2c([nH]c3ccccc23)C1C(=O)O` (centres undefined), for which the TGI in experiment [1], in [3], in experiment [11], in [5], in experiment [6] and in experiment [7] was > 100 µM each time. Also, the TGI in experiment [9] and in [10] was > 100 µM in each case.
Turning to `O=C1/C(=N/O)Cc2c(Br)ccc(Br)c21`, the TGI in [1] is > 100 µM; in [3], > 100 µM; in experiment [4], > 100 µM; in [11], > 100 µM; in [5] it was 76.3 µM; in experiment [6], 84.5 µM. Moreover, the TGI in experiment [7] was 91.3 µM; in [8], > 100 µM; in experiment [9], > 100 µM; in experiment [10] it was > 100 µM.
Regarding `Cc1cccc(N=NC(=O)NNc2cccc(C)c2C)c1C`, the TGI in experiment [1] was 95.7 µM; in experiment [2], > 100 µM; in experiment [3] it was > 100 µM; in experiment [4], > 100 µM; in experiment [11], 31.7 µM; in experiment [5], 57.1 µM. In addition, the TGI was > 100 µM in experiment [6], 53.6 µM in [7], > 100 µM in experiment [9] and > 100 µM in experiment [10].
As for `CC12C(=O)CC(CC1=O)C2(C)C`, the TGI in experiment [1], in experiment [2], in [3], in [4], in experiment [5] and in experiment [6] was > 100 µM in each case. Also, the TGI in [7], in experiment [8], in experiment [9] and in [10] was > 100 µM throughout.
As to `COc1cc(Cn2c3c(c4cc(O)ccc42)Cc2ccccc2C3=O)cc(OC)c1`, the TGI in experiment [2] was > 100 µM; in [3], > 100 µM; in experiment [4], > 100 µM; in [5] it was > 100 µM; in [6], > 100 µM; in experiment [8], 66.1 µM. Further, the TGI in experiment [9] and in experiment [10] was > 100 µM each time.
For the compound `COc1ccc(C(=C(Cl)c2ccccc2)c2ccc(OC)cc2)cc1`, the TGI in [1], in experiment [2], in experiment [3], in [4], in experiment [5] and in experiment [6] was > 100 µM throughout. Besides, the TGI in experiment [7], in [8], in experiment [9] and in experiment [10] was > 100 µM each time.
For the compound `Cc1ccc(-c2c(C#N)c(-c3ccc(Cl)cc3)c(C#N)c(=O)n2NS(=O)(=O)c2ccc(C)cc2)cc1`, the TGI was > 100 µM in experiment [1]; > 100 µM in experiment [2]; > 100 µM in experiment [3]; 74.9 µM in [11]; > 100 µM in experiment [6]; 71.9 µM in experiment [7]. Moreover, the TGI is 49.6 µM in experiment [8], > 100 µM in [9] and > 100 µM in experiment [10].

(Values after PubChem BioAssay (NCI).)
